{"source": "PubChem BioAssay (NCI)", "test_in_all_cases": "growth of human tumour cells (NCI), 48 h", "key": {"[1]": {"tested_on": "CAKI-1 renal"}, "[2]": {"tested_on": "HT29 colon"}, "[3]": {"tested_on": "M14 melanoma"}, "[4]": {"tested_on": "SK-MEL-2 melanoma"}, "[5]": {"tested_on": "SW-620 colon"}, "[6]": {"tested_on": "MDA-MB-231 breast"}, "[7]": {"tested_on": "COLO 205 colon"}, "[8]": {"tested_on": "NCI-H460 lung"}, "[9]": {"tested_on": "MDA-N"}, "[10]": {"tested_on": "EKVX NSCLC"}, "[11]": {"tested_on": "HOP-62 NSCLC"}, "[12]": {"tested_on": "HCT-116 colon"}, "[13]": {"tested_on": "U251 CNS"}, "[14]": {"tested_on": "SN12C renal"}, "[15]": {"tested_on": "OVCAR-3 ovarian"}, "[16]": {"tested_on": "MOLT-4 leukemia"}, "[17]": {"tested_on": "RXF 393 renal"}, "[18]": {"tested_on": "KM12 colon"}, "[19]": {"tested_on": "RPMI-8226 leukemia"}, "[20]": {"tested_on": "MALME-3M melanoma"}, "[21]": {"tested_on": "SK-OV-3 ovarian"}, "[22]": {"tested_on": "NCI-H226 lung"}, "[23]": {"tested_on": "OVCAR-4 ovarian"}, "[24]": {"tested_on": "TK-10 renal"}, "[25]": {"tested_on": "SNB-75 CNS"}, "[26]": {"tested_on": "HCT-15 colon"}, "[27]": {"tested_on": "OVCAR-8 ovarian"}, "[28]": {"tested_on": "K-562 leukemia"}, "[29]": {"tested_on": "A549 NSCLC"}, "[30]": {"tested_on": "NCI-H23 lung"}, "[31]": {"tested_on": "LOX IMVI melanoma"}, "[32]": {"tested_on": "SF-539 CNS"}, "[33]": {"tested_on": "HL-60(TB) leukemia"}, "[34]": {"tested_on": "SF-268 CNS"}, "[35]": {"tested_on": "SNB-19 CNS"}, "[36]": {"tested_on": "HOP-92 NSCLC"}, "[37]": {"tested_on": "DU-145 prostate"}, "[38]": {"tested_on": "NCI/ADR-RES ovarian"}, "[39]": {"tested_on": "UACC-62 melanoma"}, "[40]": {"tested_on": "MCF7 breast"}, "[41]": {"tested_on": "SK-MEL-28 melanoma"}, "[42]": {"tested_on": "MDA-MB-435"}, "[43]": {"tested_on": "SK-MEL-5 melanoma"}, "[44]": {"tested_on": "IGROV1 ovarian"}, "[45]": {"tested_on": "T-47D breast"}, "[46]": {"tested_on": "CCRF-CEM leukemia"}, "[47]": {"tested_on": "SF-295 CNS"}, "[48]": {"tested_on": "ACHN renal"}, "[49]": {"tested_on": "UO-31 renal"}, "[50]": {"tested_on": "HS 578T breast"}, "[51]": {"tested_on": "SR leukemia"}, "[52]": {"tested_on": "OVCAR-5 ovarian"}, "[53]": {"tested_on": "UACC-257 melanoma"}, "[54]": {"tested_on": "PC-3 prostate"}, "[55]": {"tested_on": "786-0 renal"}}, "note": "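Each compound was tested at five concentrations against cells in 96-well plates for 48 hours. The concentration for full growth arrest is given as TGI.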"}
{"smiles": "CN(C)CCNc1ccc([N+](=O)[O-])c2nc3ccccc3c(N)c12", "values": [{"measurement": "TGI", "setting": "[1]", "result": "> 10", "unit": "µM"}, {"measurement": "TGI", "setting": "[2]", "result": 3.07, "unit": "µM"}, {"measurement": "TGI", "setting": "[3]", "result": 1.94, "unit": "µM"}, {"measurement": "TGI", "setting": "[4]", "result": 3.53, "unit": "µM"}, {"measurement": "TGI", "setting": "[5]", "result": 3.74, "unit": "µM"}, {"measurement": "TGI", "setting": "[6]", "result": 6.89, "unit": "µM"}, {"measurement": "TGI", "setting": "[7]", "result": 1.84, "unit": "µM"}, {"measurement": "TGI", "setting": "[8]", "result": 1.66, "unit": "µM"}, {"measurement": "TGI", "setting": "[9]", "result": 2.09, "unit": "µM"}, {"measurement": "TGI", "setting": "[10]", "result": 5.4, "unit": "µM"}, {"measurement": "TGI", "setting": "[11]", "result": "> 10", "unit": "µM"}, {"measurement": "TGI", "setting": "[12]", "result": 1.91, "unit": "µM"}, {"measurement": "TGI", "setting": "[13]", "result": "> 10", "unit": "µM"}, {"measurement": "TGI", "setting": "[14]", "result": "> 10", "unit": "µM"}, {"measurement": "TGI", "setting": "[15]", "result": 3.32, "unit": "µM"}, {"measurement": "TGI", "setting": "[16]", "result": 4.74, "unit": "µM"}, {"measurement": "TGI", "setting": "[17]", "result": 4.32, "unit": "µM"}, {"measurement": "TGI", "setting": "[18]", "result": 1.75, "unit": "µM"}, {"measurement": "TGI", "setting": "[19]", "result": 1.51, "unit": "µM"}, {"measurement": "TGI", "setting": "[20]", "result": 3.12, "unit": "µM"}, {"measurement": "TGI", "setting": "[21]", "result": 1.33, "unit": "µM"}, {"measurement": "TGI", "setting": "[22]", "result": "> 10", "unit": "µM"}, {"measurement": "TGI", "setting": "[23]", "result": 3.58, "unit": "µM"}, {"measurement": "TGI", "setting": "[24]", "result": "> 10", "unit": "µM"}, {"measurement": "TGI", "setting": "[25]", "result": 3.96, "unit": "µM"}, {"measurement": "TGI", "setting": "[26]", "result": 4.01, "unit": "µM"}, {"measurement": "TGI", "setting": "[27]", "result": "> 10", "unit": "µM"}, {"measurement": "TGI", "setting": "[28]", "result": 5.35, "unit": "µM"}, {"measurement": "TGI", "setting": "[29]", "result": 4.23, "unit": "µM"}, {"measurement": "TGI", "setting": "[30]", "result": 6.55, "unit": "µM"}, {"measurement": "TGI", "setting": "[31]", "result": 2.11, "unit": "µM"}, {"measurement": "TGI", "setting": "[32]", "result": 4.48, "unit": "µM"}, {"measurement": "TGI", "setting": "[33]", "result": 6.86, "unit": "µM"}, {"measurement": "TGI", "setting": "[34]", "result": 3.94, "unit": "µM"}, {"measurement": "TGI", "setting": "[35]", "result": "> 10", "unit": "µM"}, {"measurement": "TGI", "setting": "[36]", "result": 7.71, "unit": "µM"}, {"measurement": "TGI", "setting": "[37]", "result": "> 10", "unit": "µM"}, {"measurement": "TGI", "setting": "[38]", "result": 2.45, "unit": "µM"}, {"measurement": "TGI", "setting": "[39]", "result": 3.54, "unit": "µM"}, {"measurement": "TGI", "setting": "[40]", "result": "> 10", "unit": "µM"}, {"measurement": "TGI", "setting": "[41]", "result": "> 10", "unit": "µM"}, {"measurement": "TGI", "setting": "[42]", "result": 2.61, "unit": "µM"}, {"measurement": "TGI", "setting": "[43]", "result": 2.79, "unit": "µM"}, {"measurement": "TGI", "setting": "[44]", "result": 2.78, "unit": "µM"}, {"measurement": "TGI", "setting": "[45]", "result": 3.7, "unit": "µM"}, {"measurement": "TGI", "setting": "[46]", "result": "> 10", "unit": "µM"}, {"measurement": "TGI", "setting": "[47]", "result": 8.1, "unit": "µM"}, {"measurement": "TGI", "setting": "[48]", "result": 3.51, "unit": "µM"}, {"measurement": "TGI", "setting": "[49]", "result": 4.27, "unit": "µM"}, {"measurement": "TGI", "setting": "[50]", "result": 8.2, "unit": "µM"}, {"measurement": "TGI", "setting": "[51]", "result": 1.73, "unit": "µM"}, {"measurement": "TGI", "setting": "[52]", "result": "> 10", "unit": "µM"}, {"measurement": "TGI", "setting": "[53]", "result": "> 10", "unit": "µM"}, {"measurement": "TGI", "setting": "[54]", "result": 2.87, "unit": "µM"}, {"measurement": "TGI", "setting": "[55]", "result": "> 10", "unit": "µM"}]}
